In ChEMBL document CHEMBL4043147, “9,19-Cycloartenol glycoside G3 from Cimicifuga simplex regulates immune responses by modulating Th17/Treg ratio” (Bioorg Med Chem, 2017) one finds Activity and inhibition data, which are given here for one compound.

Activity calls are given as the source filed them. No cut-off for these calls is given here.

Test [1] has as its system Mus musculus. The test is described as follows: Anti-inflammatory activity in IL-23 induced mouse psoriasis-like skin inflammation model assessed as reduction in COX2 mRNA levels at 2 to 10 uM applied topically starting 1 day prior to IL-23 induction and continuing every other day for 14 days measured after 24 hrs post last dose by real-time PCR analysis. In kind it is functional.

Test [2] deals with Treg cell. The test is described as follows: Increase in IL-10 mRNA level in C57BL/6 mouse Treg cells by real-time PCR analysis. In kind it is functional, cell-based.
A short description of test [3]: Inhibition of C57BL/6 mouse CD4-positive T cell differentiation at 25 uM relative to control. It counts as functional. Conditions: C57BL/6, CD4-positive T cell.
Test [4] has as its system Mus musculus. The test is described as follows: Anti-inflammatory activity in IL-23 induced mouse psoriasis-like skin inflammation model assessed as reduction in IL-22 mRNA levels at 2 to 10 uM applied topically starting 1 day prior to IL-23 induction and continuing every other day for 14 days measured after 24 hrs post last dose by real-time PCR analysis. It counts as functional.

Test [5] concerns Mus musculus. The test is described as follows: Anti-inflammatory activity in IL-23 induced mouse psoriasis-like skin inflammation model assessed as reduction in TNF-alpha mRNA levels at 2 to 10 uM applied topically starting 1 day prior to IL-23 induction and continuing every other day for 14 days measured after 24 hrs post last dose by real-time PCR analysis. In kind it is functional.

The target of test [6] is Tyrosine-protein kinase JAK1/JAK2 (Mus musculus) (UniProt P52332+Q62120). The test can be described thus: Inhibition of JAK1/JAK2 in C57BL/6 mouse CD4-positive T cell assessed as reduction in IFNgamma-induced STAT3 phosphorylation at 1 to 10 uM pretreated for 1 hr followed by IFNgamma addition after 15 mins by Western blot analysis.
The next test deals with CD4-positive T cell. The test is described as follows: Inhibition of C57BL/6 mouse CD4-positive T cell differentiation assessed as decrease in FoxP3 mRNA level 0.1 to 10 uM by real-time PCR analysis. It counts as functional, cell-based.
Test [7] relates to Mus musculus. The test is described as follows: Anti-inflammatory activity in IL-23 induced mouse psoriasis-like skin inflammation model assessed as reduction in IL-4 mRNA levels at 2 to 10 uM applied topically starting 1 day prior to IL-23 induction and continuing every other day for 14 days measured after 24 hrs post last dose by real-time PCR analysis. It counts as functional.

The subject of test [8] is Mus musculus. The test is described as follows: Anti-inflammatory activity in IL-23 induced mouse psoriasis-like skin inflammation model assessed as reduction in IL-17A mRNA levels at 2 to 10 uM applied topically starting 1 day prior to IL-23 induction and continuing every other day for 14 days measured after 24 hrs post last dose by real-time PCR analysis. It counts as functional.

Test [9] concerns Mus musculus. The test can be described thus: Anti-inflammatory activity in IL-23 induced mouse psoriasis-like skin inflammation model assessed as reduction in epidermal hyperplasia by measuring acanthosis at 2 to 10 uM applied topically starting 1 day prior to IL-23 induction and continuing every other day for 14 days measured after 24 hrs post last dose by hematoxylin and eosin staining based assay. In kind it is functional.

Test [10] has as its system Treg cell. The test is described as follows: Increase in IL-10 production in C57BL/6 mouse Treg cells by ELISA. In kind it is functional, cell-based.
A short description of test [11]: Inhibition of C57BL/6 mouse CD4-positive T cell differentiation at 12.5 uM relative to control. In kind it is functional. Conditions: C57BL/6, CD4-positive T cell.

Tyrosine-protein kinase JAK1/JAK2 (Mus musculus), sequence (P52332 whole entry, looked up): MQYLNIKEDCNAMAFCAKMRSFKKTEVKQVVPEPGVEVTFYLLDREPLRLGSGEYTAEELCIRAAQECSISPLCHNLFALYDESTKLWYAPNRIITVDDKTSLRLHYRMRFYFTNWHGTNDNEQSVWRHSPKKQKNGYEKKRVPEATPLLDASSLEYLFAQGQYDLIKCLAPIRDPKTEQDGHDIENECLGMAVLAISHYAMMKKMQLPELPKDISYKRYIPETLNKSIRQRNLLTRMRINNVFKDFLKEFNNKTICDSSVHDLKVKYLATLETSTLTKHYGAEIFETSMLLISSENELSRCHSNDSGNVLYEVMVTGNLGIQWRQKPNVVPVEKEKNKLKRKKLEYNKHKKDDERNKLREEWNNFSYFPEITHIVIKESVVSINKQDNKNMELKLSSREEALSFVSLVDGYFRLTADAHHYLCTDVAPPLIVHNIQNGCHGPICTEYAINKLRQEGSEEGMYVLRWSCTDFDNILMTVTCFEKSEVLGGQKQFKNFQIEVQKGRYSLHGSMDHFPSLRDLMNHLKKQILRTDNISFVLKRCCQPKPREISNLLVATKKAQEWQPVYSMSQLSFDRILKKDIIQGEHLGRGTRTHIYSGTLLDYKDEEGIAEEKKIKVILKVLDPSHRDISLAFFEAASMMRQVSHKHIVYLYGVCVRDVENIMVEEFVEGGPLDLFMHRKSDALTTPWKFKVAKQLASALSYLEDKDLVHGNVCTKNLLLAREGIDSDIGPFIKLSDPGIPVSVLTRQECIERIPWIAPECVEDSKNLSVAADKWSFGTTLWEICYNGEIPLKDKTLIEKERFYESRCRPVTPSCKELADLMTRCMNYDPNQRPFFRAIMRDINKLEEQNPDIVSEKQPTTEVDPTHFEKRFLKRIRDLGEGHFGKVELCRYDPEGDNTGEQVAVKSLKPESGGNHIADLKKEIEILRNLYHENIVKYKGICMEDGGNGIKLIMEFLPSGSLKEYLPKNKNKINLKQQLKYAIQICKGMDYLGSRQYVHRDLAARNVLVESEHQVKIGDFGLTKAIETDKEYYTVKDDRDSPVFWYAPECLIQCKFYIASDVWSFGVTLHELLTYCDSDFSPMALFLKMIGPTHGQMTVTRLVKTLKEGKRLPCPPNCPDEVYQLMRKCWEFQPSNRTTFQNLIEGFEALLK
Tyrosine-protein kinase JAK1/JAK2 (Mus musculus), sequence (Q62120 whole entry, looked up): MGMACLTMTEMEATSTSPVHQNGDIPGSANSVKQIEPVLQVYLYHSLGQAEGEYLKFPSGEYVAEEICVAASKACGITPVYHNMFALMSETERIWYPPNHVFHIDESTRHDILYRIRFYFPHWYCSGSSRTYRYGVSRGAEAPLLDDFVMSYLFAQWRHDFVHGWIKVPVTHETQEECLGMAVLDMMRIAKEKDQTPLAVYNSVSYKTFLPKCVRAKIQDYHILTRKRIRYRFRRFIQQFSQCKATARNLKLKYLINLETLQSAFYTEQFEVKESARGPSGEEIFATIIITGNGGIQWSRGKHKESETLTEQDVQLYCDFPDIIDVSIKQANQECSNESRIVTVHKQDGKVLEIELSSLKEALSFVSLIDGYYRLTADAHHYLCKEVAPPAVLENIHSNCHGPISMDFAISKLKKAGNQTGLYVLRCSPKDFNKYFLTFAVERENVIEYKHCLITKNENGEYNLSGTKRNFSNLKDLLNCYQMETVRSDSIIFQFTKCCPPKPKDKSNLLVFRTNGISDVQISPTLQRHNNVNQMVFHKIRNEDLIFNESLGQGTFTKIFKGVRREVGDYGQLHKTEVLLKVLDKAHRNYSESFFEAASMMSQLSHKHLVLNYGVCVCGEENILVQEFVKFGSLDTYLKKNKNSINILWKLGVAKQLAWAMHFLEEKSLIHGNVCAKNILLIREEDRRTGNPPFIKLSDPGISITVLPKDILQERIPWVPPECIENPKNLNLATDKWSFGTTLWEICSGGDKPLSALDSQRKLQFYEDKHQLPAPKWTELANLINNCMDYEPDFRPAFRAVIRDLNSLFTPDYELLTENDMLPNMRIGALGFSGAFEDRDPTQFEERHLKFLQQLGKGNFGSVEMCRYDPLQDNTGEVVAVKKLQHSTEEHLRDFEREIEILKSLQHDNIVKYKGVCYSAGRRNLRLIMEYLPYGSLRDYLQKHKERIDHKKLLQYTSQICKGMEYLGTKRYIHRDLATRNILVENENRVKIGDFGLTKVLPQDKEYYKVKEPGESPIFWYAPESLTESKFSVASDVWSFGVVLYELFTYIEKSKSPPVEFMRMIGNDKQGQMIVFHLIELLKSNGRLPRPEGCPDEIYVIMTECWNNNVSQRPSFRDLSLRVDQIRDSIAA

In the case of `CC(=O)O[C@@H]1C[C@@]23C[C@@]24CC[C@H](O[C@@H]2O[C@H](CO)[C@H](O)[C@H](O)[C@H]2O)C(C)(C)[C@@H]4CC[C@H]3[C@]2(C)C[C@]3(O)O[C@H](C(=O)[C@@H]4OC4(C)C)[C@@H](C)[C@@H]3[C@@]12C`, the result with Mus musculus [1], with Mus musculus [4], in the test with Mus musculus [5], in the test with Mus musculus [7], with Mus musculus [8] and in the test with Mus musculus [9] was Active. For the same compound, the Activity entry with Treg cell [2] and in the test with Treg cell [10] was “Dose-dependent effect” in each case. The compound also had an inhibition at 25 µM in test [3] of 93.6%. In addition, the inhibition result in [6] is “Active”. Also, in the test with CD4-positive T cell, the inhibition result is “inactive”. The compound also registered an inhibition at 12.5 µM in test [11] of 59.6%.
